Measured values reported in ChEMBL document CHEMBL4393717, “Development of novel human lactate dehydrogenase A inhibitors: High-throughput screening, synthesis, and biological evaluations” (Eur J Med Chem, 2019).
Blank lines part the entries; values can stand above or below the compound they belong to. Activity calls are given as the source filed them. No cut-off for these calls is given here.

Key:
MIA PaCa-2 [1] = assay: Inhibition of colony formation in human MIAPaCa2 cells at 0.5 uM treated for 3 days and supplemented with fresh medium with out compound every 3 days measured after 15 days by crystal violet staining based assay; type: functional, cell-based
MIA PaCa-2 [2] = assay: Cell cycle arrest in human MIAPaCa2 cells assessed as accumulation at G2 phase at 5 uM incubated for 24 hrs by propidium iodide staining based flow cytometry (reference value: 31.00%); type: functional
MIA PaCa-2 [3] = assay: Induction of apoptosis in human MIAPaCa2 cells assessed as viable cells at 5 uM incubated for 12 hrs by annexin V and propidium iodide staining based flow cytometry analysis (reference value: 94.85 %); type: functional; details: MIA PaCa-2, 12 h, read-out: Activity
MIA PaCa-2 [4] = assay: Induction of apoptosis in human MIAPaCa2 cells assessed as necrotic cells at 5 uM incubated for 12 hrs by annexin V and propidium iodide staining based flow cytometry analysis (reference value: 1.54 %); type: functional
MIA PaCa-2 [5] = assay: Induction of apoptosis in human MIAPaCa2 cells assessed as early apoptotic cells at 5 uM incubated for 12 hrs by annexin V and propidium iodide staining based flow cytometry analysis (reference value: 0.40 %); type: functional
MIA PaCa-2 [6] = assay: Cell cycle arrest in human MIAPaCa2 cells assessed as accumulation at S phase at 5 uM incubated for 24 hrs by propidium iodide staining based flow cytometry (reference value: 12.99%); type: functional
MIA PaCa-2 [7] = assay: Cell cycle arrest in human MIAPaCa2 cells assessed as accumulation at G1 phase at 5 uM incubated for 24 hrs by propidium iodide staining based flow cytometry (reference value: 56.01%); type: functional
MIA PaCa-2 [8] = assay: Induction of apoptosis in human MIAPaCa2 cells assessed as late apoptotic cells at 5 uM incubated for 12 hrs by annexin V and propidium iodide staining based flow cytometry analysis (reference value: 3.21 %); type: functional
MIA PaCa-2 [9] = assay: Induction of apoptosis in human MIAPaCa2 cells assessed as viable cells at 1 uM incubated for 12 hrs by annexin V and propidium iodide staining based flow cytometry analysis (reference value: 94.85 %); type: functional; details: MIA PaCa-2, 12 h, read-out: Activity
[10] = Toxicity in nude mouse xenografted with human MIAPaCa2 cells assessed as reduction in body weight at 10 mg/kg administered once daily for 21 days measured twice a week; type: organism-based; details: in vivo, 504 h
MIA PaCa-2 [11] = assay: Antitumor activity against human MIAPaCa2 cells xenografted in mouse assessed as reduction in tumor weight at 10 mg/kg administered once daily for 21 days measured twice a week; type: functional, organism-based
MIA PaCa-2 [12] = assay: Cell cycle arrest in human MIAPaCa2 cells assessed as accumulation at G2 phase at 10 uM incubated for 24 hrs by propidium iodide staining based flow cytometry (reference value: 31.00%); type: functional
[13] = target: T1, L-lactate dehydrogenase A chain (Homo sapiens, UniProt P00338); assay: Inhibition of recombinant human full-length N-terminal His-tagged LDHA (1 to 332 residues) expressed in Escherichia coli using sodium pyruvate as substrate incubated for 10 mins
A549 [14] = assay: Antiproliferative activity against human A549 cells assessed as reduction in cell viability at incubated for 72 hrs by MTT assay; type: functional, cell-based; details: A549, 72 h
MIA PaCa-2 [15] = assay: Cell cycle arrest in human MIAPaCa2 cells assessed as accumulation at G2 phase at 1 uM incubated for 24 hrs by propidium iodide staining based flow cytometry (reference value: 31.00%); type: functional
MIA PaCa-2 [16] = assay: Antitumor activity against human MIAPaCa2 cells xenografted in nude mouse assessed as reduction in tumor growth at 10 mg/kg administered once daily for 21 days measured twice a week; type: functional, organism-based
MIA PaCa-2 [17] = assay: Antiproliferative activity against human MIAPaCa2 cells assessed as reduction in cell viability incubated for 72 hrs by MTT assay; type: functional, cell-based; details: MIA PaCa-2, 72 h
MIA PaCa-2 [18] = assay: Cell cycle arrest in human MIAPaCa2 cells assessed as accumulation at S phase at 1 uM incubated for 24 hrs by propidium iodide staining based flow cytometry (reference value: 12.99%); type: functional
MIA PaCa-2 [19] = assay: Induction of apoptosis in human MIAPaCa2 cells assessed as late apoptotic cells at 10 uM incubated for 12 hrs by annexin V and propidium iodide staining based flow cytometry analysis (reference value: 3.21 %); type: functional
MIA PaCa-2 [20] = assay: Induction of apoptosis in human MIAPaCa2 cells assessed as necrotic cells at 10 uM incubated for 12 hrs by annexin V and propidium iodide staining based flow cytometry analysis (reference value: 1.54 %); type: functional
MIA PaCa-2 [21] = assay: Inhibition of colony formation in human MIAPaCa2 cells treated for 3 days and supplemented with fresh medium with out compound every 3 days measured after 15 days by crystal violet staining based assay; type: functional, cell-based
MIA PaCa-2 [22] = assay: Induction of apoptosis in human MIAPaCa2 cells assessed as early apoptotic cells at 10 uM incubated for 12 hrs by annexin V and propidium iodide staining based flow cytometry analysis (reference value: 0.40 %); type: functional
[23] = target: T1, L-lactate dehydrogenase A chain; assay: Inhibition of LDHA in human MIAPaCa2 cells assessed as switch of pyruvate metabolism from lactate production to oxidative phosphorylation by measuring decrease in extracellular acidification rate at 1 to 10 uM incubated for 4 hrs; type: cell-based
[24] = target: T1, L-lactate dehydrogenase A chain; assay: Inhibition of LDHA in human MIAPaCa2 cells assessed as switch of pyruvate metabolism from lactate production to oxidative phosphorylation by measuring increase in oxygen consumption rate at 1 to 10 uM incubated for 4 hrs; type: cell-based
MIA PaCa-2 [25] = assay: Cell cycle arrest in human MIAPaCa2 cells assessed as accumulation at G1 phase at 10 uM incubated for 24 hrs by propidium iodide staining based flow cytometry (reference value: 56.01%); type: functional
MIA PaCa-2 [26] = assay: Cell cycle arrest in human MIAPaCa2 cells assessed as accumulation at G1 phase at 1 uM incubated for 24 hrs by propidium iodide staining based flow cytometry (reference value: 56.01%); type: functional
MIA PaCa-2 [27] = assay: Cell cycle arrest in human MIAPaCa2 cells assessed as increase in accumulation at G2 phase incubated for 24 hrs by propidium iodide staining based flow cytometry; type: functional
MIA PaCa-2 [28] = assay: Induction of apoptosis in human MIAPaCa2 cells assessed as necrotic cells at 1 uM incubated for 12 hrs by annexin V and propidium iodide staining based flow cytometry analysis (reference value: 1.54 %); type: functional
MIA PaCa-2 [29] = assay: Induction of apoptosis in human MIAPaCa2 cells incubated for 12 hrs by Annexin V-FITC/propidium iodide staining based flow cytometry; type: functional, cell-based
MIA PaCa-2 [30] = assay: Induction of apoptosis in human MIAPaCa2 cells assessed as early apoptotic cells at 1 uM incubated for 12 hrs by annexin V and propidium iodide staining based flow cytometry analysis (reference value: 0.40 %); type: functional
MIA PaCa-2 [31] = assay: Inhibition of colony formation in human MIAPaCa2 cells at 1 uM treated for 3 days and supplemented with fresh medium with out compound every 3 days measured after 15 days by crystal violet staining based assay; type: functional
[32] = target: T1, L-lactate dehydrogenase A chain; assay: Inhibition of LDHA in human MIAPaCa2 cells assessed as switch of pyruvate metabolism from lactate production to oxidative phosphorylation by measuring reduction in lactate formation at 1 to 10 uM incubated for 4 hrs; type: cell-based
MIA PaCa-2 [33] = assay: Cell cycle arrest in human MIAPaCa2 cells assessed as accumulation at S phase at 10 uM incubated for 24 hrs by propidium iodide staining based flow cytometry (reference value: 12.99%); type: functional
MIA PaCa-2 [34] = assay: Induction of apoptosis in human MIAPaCa2 cells assessed as viable cells at 10 uM incubated for 12 hrs by annexin V and propidium iodide staining based flow cytometry analysis (reference value: 94.85 %); type: functional; details: MIA PaCa-2, 12 h, read-out: Activity
MIA PaCa-2 [35] = assay: Induction of apoptosis in human MIAPaCa2 cells assessed as late apoptotic cells at 1 uM incubated for 12 hrs by annexin V and propidium iodide staining based flow cytometry analysis (reference value: 3.21 %); type: functional
MIA PaCa-2 [36] = assay: Antiproliferative activity against human MIAPaCa2 cells assessed as reduction in cell viability at 50 uM incubated for 72 hrs by MTT assay relative to control; type: functional; details: for inhibition at 50 µM: MIA PaCa-2, 72 h
MCF7 = assay: Antiproliferative activity against human MCF7 cells assessed as reduction in cell viability at 50 uM incubated for 72 hrs by MTT assay relative to control; type: functional; details: for inhibition at 50 µM: MCF7, 72 h
A549 [37] = assay: Antiproliferative activity against human A549 cells assessed as reduction in cell viability at 50 uM incubated for 72 hrs by MTT assay relative to control; type: functional; details: for inhibition at 50 µM: A549, 72 h
[38] = target: T1, L-lactate dehydrogenase A chain; assay: Inhibition of recombinant human full-length N-terminal His-tagged LDHA (1 to 332 residues) expressed in Escherichia coli at 10 uM using sodium pyruvate as substrate incubated for 10 mins relative to control

SMILES: COc1cccc2c1C(=O)c1c(O)c3c(c(O)c1C2=O)C[C@@](O)(C(=O)CO)C[C@@H]3O[C@H]1C[C@H](N)[C@H](O)[C@H](C)O1 [DOXORUBICIN]
inhibition (MIA PaCa-2 [1]): Active
Activity (MIA PaCa-2 [2]): 54.37%
viability at 5 µM (MIA PaCa-2 [3]): 74.7%
Activity (MIA PaCa-2 [4]): 7.4%
Activity (MIA PaCa-2 [5]): 2.26%
Activity (MIA PaCa-2 [6]): 5.54%
Activity (MIA PaCa-2 [7]): 40.09%
Activity (MIA PaCa-2 [8]): 15.66%

EC50 [13]: 0.09 µM
IC50 (A549 [14]): 7.8 µM
IC50 (MIA PaCa-2 [17]): 2.1 µM
inhibition [23]: Active
inhibition [24]: Active
inhibition [32]: Active
SMILES: O=C(c1ccco1)N1CCN(Cc2cc(=O)c(OCc3ccccc3F)co2)CC1
viability at 1 µM (MIA PaCa-2 [9]): 89.8%
Activity [10]: Non-Toxic
inhibition (MIA PaCa-2 [1]): Active
Activity (MIA PaCa-2 [11]): Active
Activity (MIA PaCa-2 [12]): 59.99%
Activity (MIA PaCa-2 [15]): 38.52%
Activity (MIA PaCa-2 [16]): Active
Activity (MIA PaCa-2 [18]): 12.29%
Activity (MIA PaCa-2 [19]): 27.68%
Activity (MIA PaCa-2 [2]): 42.12%
Activity (MIA PaCa-2 [20]): 13.38%
inhibition (MIA PaCa-2 [21]): Dose-dependent effect
Activity (MIA PaCa-2 [22]): 3.79%
Activity (MIA PaCa-2 [25]): 36.21%
Activity (MIA PaCa-2 [26]): 49.19%
Activity (MIA PaCa-2 [27]): Dose-dependent effect
Activity (MIA PaCa-2 [28]): 3.23%
viability at 5 µM (MIA PaCa-2 [3]): 66.6%
Activity (MIA PaCa-2 [29]): Dose-dependent effect
Activity (MIA PaCa-2 [30]): 1.14%
Activity (MIA PaCa-2 [4]): 10.1%
inhibition at 1 µM (MIA PaCa-2 [31]): 100%
Activity (MIA PaCa-2 [5]): 3.47%
Activity (MIA PaCa-2 [6]): 13.37%
Activity (MIA PaCa-2 [33]): 3.8%
Activity (MIA PaCa-2 [7]): 44.51%
viability at 10 µM (MIA PaCa-2 [34]): 55.1%
Activity (MIA PaCa-2 [35]): 5.79%
Activity (MIA PaCa-2 [8]): 19.86%

EC50 [13]: 0.89 µM
IC50 (A549 [14]): > 50 µM
IC50 (MIA PaCa-2 [17]): > 50 µM
inhibition [38]: > 90%
SMILES: O=C(Cn1cnc2ccccc2c1=O)N1CCN(C(=O)c2cc3n(n2)CCCC3)CC1
inhibition at 50 µM (MIA PaCa-2 [36]): 58.7%
inhibition at 50 µM (MCF7): 25.7%
inhibition at 50 µM (A549 [37]): 45.6%

EC50 [13]: 1.2 µM
IC50 (A549 [14]): 22.7 µM
IC50 (MIA PaCa-2 [17]): 29.8 µM
inhibition [38]: > 90%
SMILES: CC(=O)c1ccc(NC(=O)COc2cc(C)nc(C3CCC(C)CC3)n2)cc1 (centres undefined)
inhibition at 50 µM (MIA PaCa-2 [36]): 75.6%
inhibition at 50 µM (MCF7): 85.7%
inhibition at 50 µM (A549 [37]): 45.8%

EC50 [13]: 7.5 µM
IC50 (A549 [14]): > 50 µM
IC50 (MIA PaCa-2 [17]): > 50 µM
inhibition [38]: > 90%
SMILES: COc1cccc2c1OC(C(=O)N1CCC(Cn3ccnc3C(C)C)CC1)C2 (centres undefined)
inhibition (MIA PaCa-2 [36]): inactive
inhibition (MCF7): inactive
inhibition (A549 [37]): inactive
